Active and inactive are the calls of the source. No cut-off for these calls is given here.
Test system: Influenza A virus
Test: Antiviral activity against Influenza A/WSN/33 harboring H275Y mutant at 0.3 uM
Type: functional, organism-based

CC(C)(C)N(CC(=O)O)Nc1nc(-c2c[nH]c3ncc(F)cc23)ncc1F
Activity: Active

From ChEMBL document CHEMBL5385878, “Synthesis and structure-activity optimization of 7-azaindoles containing aza-β-amino acids targeting the influenza PB2 subunit” (Eur J Med Chem, 2023)
